Results reported in patent US20040116501A1, “Treatment of nonallergic rhinitis by selective phosphodiesterase 4 inhibitors” (priority 2002, published 2004).
Like-named read-outs stand apart in the source and are kept apart here. Marks after values point to notes of the source that are not given here.

Tested on: acetic acid-induced vascular permeability of the rat nasal mucosa
Assay: Acetic acid-induced vascular permeability in Sprague-Dawley rats (nonallergic rhinitis model), Evans Blue in nasal perfusate
Assay type: in vivo
Details: for inhibition of the vascular permeability of the nasal mucosa (in words): test range from 0.1 to 10 μmol/l
Procedure: Effect on Acetic Acid-Induced Vascular Permeability in Sprague-Dawley Rats (Nonallergic Rhinitis Model)
Male Sprague-Dawley rats weighing 280-320 g are anesthetized on the day of the experiment by i.p. injection of 0.9-1 ml/animal of a 2.5% strength thiopental sodium solution. The trachea is then exposed below the epiglottis and incised at two points. A polyethylene catheter is pushed into the lower opening in the trachea in the direction of the lung (orthograde) and secured by tying with twine in order to maintain breathing. A second polyethylene catheter with LUER lock connector (cut from Original-Perfusor® line) for retrograde perfusion of the nasal cavity is introduced into the upper opening and advanced retrogradely as far as the inner opening of the choanae so that the solution can flow through the nasal cavity. 8 animals in total are placed individually on their backs on specially fabricated plastic tables in such a way that the perfusion fluid can drip out of the nostrils and be collected in the fraction collector.
During this, half of the head looks with the nose beyond the edge of the table.
A polyethylene infusion line is connected to the LUER lock connector of the catheter which has been secured retrogradely in each animal and is immersed in the container with the prepared perfusion fluid via a roller pump. The roller pump is adjusted to a constant delivery of 0.5 ml of fluid/min. A red lamp is switched on over the animals for warming.
Initial perfusion of the nasal cavity with PBS for 30 min serves to wash out the nasal mucus. During this, the fraction collector is switched on and the perfusate dripping out of the nostrils is collected in 15 min fractions (2 fractions). The second fraction is used as normal value for the experiment.
The test substances are administered topically before administration of acetic acid. They are added to the perfusion medium (PBS, Dulbecco) in molar concentrations. 4.6 mg of AWD 12-281 or other test substances such as AWD 12-322 or AWD 12-298 are diluted in accordance with their molecular weight (4.6 mg of AWD 12-322 or 5.2 mg of AWD 12-298) with 1 ml of 1N NaOH and then made up to 10 ml with double-distilled H2O. […] These solutions are perfused through the noses using the roller pump for 30 min, and the 2 samples obtained from the fraction collector are discarded. The roller pump is then switched off.
After perfusion with the substance, the plasma marker Evans Blue (1% strength solution in PBS) is injected, 1 ml per animal, into the jugular vein and then 0.1% strength acetic acid solution is forced through tubings and roller pumps into the nasal cavity until 2-3 drops of acetic acid solution drip from the conchae. The roller pumps are then switched off. The acetic acid solution is left in the nasal cavity for 30 minutes in order to ensure complete permeation of the nasal mucosa.
After an exposure time of 30 minutes, the roller pumps and the fraction collector are switched on again, and the 0.1% strength acetic acid solution in PBS is perfused retrogradely (with a constant delivery of 0.5 ml liquid/min) through the nasal cavity for 60 min. During this, the perfusate dripping out of the nostrils is continuously received in glass tubes and collected in 4 periods of 15 min. Aliquots of the samples including the control samples are placed on microtiter plates and measured using a Digiscan photometer at a wavelength of 620 nm relative to the control sample (blank). […] The Evans Blue content in 4 collected fractions, each selected over 15 minutes, of the perfusate flowing out in μg/ml is calculated by formula 1: [formula]
tn time interval (15 min)
yn Evans Blue content per time interval (μg/l per 15 min)
The means and standard deviations (x±SD) of the AUC′ for individual animals in a control group or a group of animals pretreated with substance are calculated. The inhibition of the vascular permeability is stated in percent.

[1] = acetic acid-induced rhinitis in rats
[2] = test substance concentration 0.1 μmol/l, single 30-minute nasal perfusion before 0.1% acetic acid, rat
[3] = test substance concentration 1 μmol/l, single 30-minute nasal perfusion before 0.1% acetic acid, rat
[4] = test substance concentration 3 μmol/l, single 30-minute nasal perfusion before 0.1% acetic acid, rat
[5] = test substance concentration 10 μmol/l, single 30-minute nasal perfusion before 0.1% acetic acid, rat
[6] = test substance concentration 1 μmol/l, single 30-minute nasal perfusion before 0.1% acetic acid, rat, vs vehicle control
[7] = test substance concentration 3 μmol/l, single 30-minute nasal perfusion before 0.1% acetic acid, rat, vs vehicle control
[8] = test substance concentration 10 μmol/l, single 30-minute nasal perfusion before 0.1% acetic acid, rat, vs vehicle control

| Compound | inhibition of the vascular permeability of the nasal mucosa (in words) [1] | Evans Blue content (μg/ml) in the perfusate AUC′ x ± SD [2] | Evans Blue content (μg/ml) in the perfusate AUC′ x ± SD [3] | Evans Blue content (μg/ml) in the perfusate AUC′ x ± SD [4] | Evans Blue content (μg/ml) in the perfusate AUC′ x ± SD [5] | % Inhibition [6] | % Inhibition [7] | % Inhibition [8] | further results |
| --- | --- | --- | --- | --- | --- | --- | --- | --- | --- |
| O=C(Nc1c(Cl)cncc1Cl)C(=O)c1cn(Cc2ccc(F)cc2)c2ccc(O)cc12 [AWD 12-281, N-(3,5-dichloropyrid-4-yl)-[1-(4-fluorobenzyl)-5-hydroxyindol-3-yl]glyoxylamide] | concentration-dependent inhibition | 10.88 ± 8.45 µg/mL | 5.96 ± 7.97 µg/mL | 6.41 ± 5.81 µg/mL | 3.68 ± 4.40 µg/mL | – | – | – | inhibition at 0.1 µM (0.5 h, test substance concentration 0.1 μmol/l, single 30-minute nasal perfusion before 0.1% acetic acid, rat, vs vehicle control, read-out: % Inhibition): 29%; inhibition at 1 µM (0.5 h, test substance concentration 1 μmol/l, single 30-minute nasal perfusion before 0.1% acetic acid, rat, vs vehicle control, read-out: % Inhibition): 61%; inhibition at 3 µM (0.5 h, test substance concentration 3 μmol/l, single 30-minute nasal perfusion before 0.1% acetic acid, rat, vs vehicle control): 58%; inhibition at 10 µM (0.5 h, test substance concentration 10 μmol/l, single 30-minute nasal perfusion before 0.1% acetic acid, rat, vs vehicle control, read-out: % Inhibition): 76% |
| CCOC(C)=O.O=C(Nc1c(Cl)cncc1Cl)C(=O)c1cn(Cc2c(F)cccc2F)c2ccc(O)cc12.O=C(Nc1c(Cl)cncc1Cl)C(=O)c1cn(Cc2c(F)cccc2F)c2ccc(O)cc12 [AWD 12-298, N-(3,5-dichloropyrid-4-yl)-[1-(2,6-difluorobenzyl)-5-hydroxyindol-3-yl]glyoxylamide semi-ethyl acetate] | – | – | 17.72 ± 9.31 µg/mL | 8.43 ± 5.56 µg/mL | 6.03 ± 7.11 µg/mL | 0% | 49% | 64* % | activity in the model of acetic acid-induced rhinitis (in words) (concentration range from 3 to 10 μmol/l, rats): concentration-dependent activity |
| O=C(Nc1c(Cl)cncc1Cl)C(=O)c1cn(Cc2ccc(O)cc2)c2ccc(O)cc12 [AWD 12-322, N-(3,5-dichloropyrid-4-yl)-2-[5-hydroxy-1-(4-hydroxybenzyl)-1H-indol-3-yl]glyoxylamide] | concentration-dependent inhibition | 13.77 ± 6.65 µg/mL | 7.25 ± 6.77 µg/mL | – | 2.62 ± 3.44 µg/mL | – | – | – | inhibition at 0.1 µM (Rattus norvegicus, 0.5 h): 5%; inhibition at 1 µM (Rattus norvegicus, 0.5 h): 50%; inhibition at 10 µM (Rattus norvegicus, 0.5 h): 82% |
| C[C@H]1C[C@H]2[C@@H]3CCC4=CC(=O)C=C[C@]4(C)[C@@]3(Cl)[C@@H](O)C[C@]2(C)[C@@]1(O)C(=O)CO [Beclomethasone, beclomethasone, reference compound] | – | 4.93 ± 3.19 µg/mL | 0.93 ± 1.80 µg/mL | 5.51 ± 7.12 µg/mL | 4.86 ± 8.08 µg/mL | 95** % | 68* % | 81** % | effect against the vascular plasma permeability induced by acetic acid in the nasal mucosa (in words) (rat rhinitis model, summary statement): dose-dependent effect; activity compared with the PDE4 inhibitors (in words) (standard therapeutic agents, acetic acid-induced rhinitis in rats): approximately the same activity; Evans Blue content (μg/ml) in the perfusate AUC′ x ± SD (test substance concentration 0.01 μmol/l, single 30-minute nasal perfusion before 0.1% acetic acid, rat): 10.70 ± 2.38 µg/mL; % Inhibition (test substance concentration 0.01 μmol/l, single 30-minute nasal perfusion before 0.1% acetic acid, rat, vs vehicle control): 38%; % Inhibition (test substance concentration 0.1 μmol/l, single 30-minute nasal perfusion before 0.1% acetic acid, rat, vs vehicle control): 72* % |
